The target of assay [1] is T1, human XIAP_BIR3 domain purified protein (Homo sapiens, UniProt P98170).
T1 construct: purchased R & D
In words: XIAP binding inhibitory activity (HTRF, b-Smac ligand). Particulars: second symbol of cell; read-out: XIAP binding inhibition IC50 value. Put shortly: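 HTRF competition between compound and C-terminally biotinylated Smac peptide AVPIAQK for His-tagged XIAP BIR3, both diluted to 90 nM before addition, in pH 7.5 HEPES/NaCl/BSA/Triton buffer. Eu-cryptate anti-His and streptavidin-XL665 added, ≥4 h at room temperature in the dark; inhibition % from 665/615 nm ratio versus no-compound wells.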

Assay [2] concerns the target T2, IRAK-M (Homo sapiens, UniProt Q9Y616).
T2 sequence (Q9Y616 1-596): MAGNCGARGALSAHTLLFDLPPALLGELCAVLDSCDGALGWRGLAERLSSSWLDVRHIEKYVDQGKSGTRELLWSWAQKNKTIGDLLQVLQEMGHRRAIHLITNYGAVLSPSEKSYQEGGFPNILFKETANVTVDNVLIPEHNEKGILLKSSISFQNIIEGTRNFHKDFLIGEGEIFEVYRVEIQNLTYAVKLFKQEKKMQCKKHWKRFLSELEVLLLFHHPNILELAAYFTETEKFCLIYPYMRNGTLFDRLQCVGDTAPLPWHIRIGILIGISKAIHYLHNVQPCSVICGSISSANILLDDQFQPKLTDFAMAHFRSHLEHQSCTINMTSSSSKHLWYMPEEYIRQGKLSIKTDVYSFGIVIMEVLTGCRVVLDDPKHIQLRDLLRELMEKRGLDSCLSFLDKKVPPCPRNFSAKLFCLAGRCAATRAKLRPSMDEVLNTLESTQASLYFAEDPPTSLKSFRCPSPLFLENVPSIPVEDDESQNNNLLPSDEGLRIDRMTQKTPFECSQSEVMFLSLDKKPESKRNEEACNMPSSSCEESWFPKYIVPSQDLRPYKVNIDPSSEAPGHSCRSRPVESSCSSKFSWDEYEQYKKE
In words: In vitro degradation activity of target protein (IRAK-M ELISA in THP1 cells). Details: host or cells: THP1 cells. In kind it is cell-based. Particulars: 24 hours, second symbol of cell, read-out: IRAK-M 50% degradation concentration (DC50 value). Background: ELISA stands for enzyme-linked immunosorbent assay.

Assay [3] concerns the target T2, IRAK-M. Briefly: IRAK-M binding inhibitory activity (KINOMEscan active site-dependent competitive assay). Details: purchased Eurofins Discover X. Particulars: concentration of the test compound 1 μM; first symbol of cell; read-out: IRAK-M binding inhibition activity % Ctrl. Put shortly:
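Readout given as % Ctrl, with DMSO as 100% and a control compound as 0%, scaling the test compound signal between them. Binding to human IRAK-M was assessed by KINOMEscan competition at the kinase active site.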

Counter-ions that a name gives are not always drawn. Some results are limits rather than exact numbers.

T1 sequence (P98170 252-356 limits assumed): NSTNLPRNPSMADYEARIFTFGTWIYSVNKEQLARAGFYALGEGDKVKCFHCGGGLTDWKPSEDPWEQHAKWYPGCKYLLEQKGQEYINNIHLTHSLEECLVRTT

Regarding `CN[C@@H](C)C(=O)N[C@H](C(=O)N1CCN(C(=O)c2c(F)c3cc(F)ccc3n2CC(=O)N2CCC[C@H]2COc2cc(CN3CCC(Oc4ccnc5ccsc45)CC3)on2)CC1)C1CCCCC1` [Example 41, (S)-N-((S)-1-cyclohexyl-2-(4-(3,5-difluoro-1-(2-oxo-2-((S)-2-(((5-((4-(thieno[3,2-b]pyridin-7-yloxy)piperidin-1-yl)methyl)isoxazol-3-yl)oxy)methyl)pyrrolidin-1-yl)ethyl)-1H-indole-2-carbonyl)piperazin-1-yl)-2-oxoethyl)-2-(methylamino)propanamide], in assay [1], the half-inhibitory concentration (IC50) was in the range of 3 to 30 µM. Moreover, the DC50 in assay [2] lay within 100 to 300 nM. In addition, in assay [3], the remaining binding at 1 µM fell in the range of 25 to 50%.
For `CN[C@@H](C)C(=O)N[C@H](C(=O)N1CCN(C(=O)c2cc3cc(F)c(F)cc3n2CC(=O)N2CCC[C@H]2COc2cc(CN3CCC(Oc4ccnc5ccsc45)CC3)on2)CC1)C1CCCCC1` [Example 25, (S)-N-((S)-1-Cyclohexyl-2-(4-(5,6-difluoro-1-(2-oxo-2-((S)-2-(((5-((4-(thieno[3,2-b]pyridin-7-yloxy)piperidin-1-yl)methyl)isoxazol-3-yl)oxy)methyl)pyrrolidin-1-yl)ethyl)-1H-indole-2-carbonyl)piperazin-1-yl)-2-oxoethyl)-2-(methylamino)propanamide hydrochloride], the IC50 in assay [1] lay within 3 to 30 µM. Moreover, the DC50 in assay [2] was 30 to 100 nM. The remaining binding at 1 µM in assay [3] was less than 25%.
Turning to `CN[C@@H](C)C(=O)N[C@H](C(=O)N1CCN(C(=O)c2c(C)c3ccccc3n2CC(=O)N(C)CCOCCOCCOCCOc2cc(CN3CCC(Oc4ccnc5ccsc45)CC3)on2)CC1)C1CCCCC1` [Example 35, (S)-N-((S)-1-cyclohexyl-2-(4-(3-methyl-1-(3-methyl-2-oxo-14-((5-((4-(thieno[3,2-b]pyridin-7-yloxy)piperidin-1-yl)methyl)isoxazol-3-yl)oxy)-6,9,12-trioxa-3-azatetradecyl)-1H-indole-2-carbonyl)piperazin-1-yl)-2-oxoethyl)-2-(methylamino)propanamide], the IC50 in assay [1] lay within 3 to 30 µM. Also, in assay [2], the DC50 was 300 to 1000 nM. Further, the remaining binding at 1 µM in assay [3] was in the range of 25 to 50%.
For `CN[C@@H](C)C(=O)N[C@H](C(=O)N1CCN(C(=O)c2c(Cl)c3cc(F)ccc3n2CC(=O)N(C)CCOCCOCCOCCOc2cc(CN3CCC(Oc4ccnc5ccsc45)CC3)on2)CC1)C1CCCCC1` [Example 34, (S)-N-((S)-2-(4-(3-chloro-5-fluoro-1-(3-methyl-2-oxo-14-((5-((4-(thieno[3,2-b]pyridin-7-yloxy)piperidin-1-yl)methyl)isoxazol-3-yl)oxy)-6,9,12-trioxa-3-azatetradecyl)-1H-indole-2-carbonyl)piperazin-1-yl)-1-cyclohexyl-2-oxoethyl)-2-(methylamino)propanamide], the IC50 in assay [1] is 3 to 30 µM. The DC50 in assay [2] is 300 to 1000 nM. Further, the remaining binding at 1 µM in assay [3] is 25 to 50%.
As to `CN[C@@H](C)C(=O)N[C@H](C(=O)N1CCN(C(=O)c2cc3c(OCCOCCOCCOCCOc4cc(CN5CCC(Oc6ccnc7ccsc67)CC5)on4)c(F)c(F)cc3n2C)CC1)C1CCCCC1` [Example 51, (S)-N-((S)-1-cyclohexyl-2-(4-(5,6-difluoro-1-methyl-4-(2-(2-(2-(2-((5-((4-(thieno[3,2-b]pyridin-7-yloxy)piperidin-1-yl)methyl)isoxazol-3-yl)oxy)ethoxy)ethoxy)ethoxy)ethoxy)-1H-indole-2-carbonyl)piperazin-1-yl)-2-oxoethyl)-2-(methylamino)propanamide], the IC50 in assay [1] was in the range of 0.3 to 3 µM. Besides, the DC50 in assay [2] was in the range of 100 to 300 nM. Besides, the remaining binding at 1 µM in assay [3] was less than 25%.

One may read the IC50 as the concentration that inhibits the measured activity by half.

The values above are taken from patent publication US20220402935A1, “HETEROCYCLIC COMPOUND” (FIMECS, INC., priority 2019, published 2022).
